For 27 compounds, IC50 results are on record in US10035790B2, “RORγ modulators” (BRISTOL-MYERS SQUIBB COMPANY, priority 2012, dated 2018).

SMILES strings stand for the structures.

The target of the test is T1, ligand binding domain of human RORγ (A262-S507) (Homo sapiens, UniProt P51449).
T1 construct: made in house; host or cells: E. coli
T1 sequence (P51449 262-507): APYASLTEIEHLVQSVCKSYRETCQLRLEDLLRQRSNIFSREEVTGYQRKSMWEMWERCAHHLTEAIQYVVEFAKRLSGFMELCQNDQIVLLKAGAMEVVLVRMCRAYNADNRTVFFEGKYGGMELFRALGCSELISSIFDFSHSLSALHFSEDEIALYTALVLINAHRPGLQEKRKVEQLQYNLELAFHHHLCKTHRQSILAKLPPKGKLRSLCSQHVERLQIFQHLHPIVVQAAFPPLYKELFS
As to the kind of experiment: General RORγ SPA binding assay (competition with [3H]25-hydroxycholesterol). Particulars: RORγ SPA binding assay, inhibition of [3H]25-hydroxycholesterol binding; read-out: IC50. In outline:
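Step one: compound meets 50 nM nickel-purified, His-tagged protein from E. coli for 15 min at room temperature (PBS, 0.5% fatty acid free BSA). Step two: radioligand is added for another 15 min. Step three: SPA beads are added for 30 min before scintillation reading and IC50 fitting.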
With `Cc1ncc(C(C)(F)COc2cccc(C(F)(F)F)n2)c(C2CCN(C(=O)Nc3c(F)cccc3F)CC2)n1` (stereo not drawn) [Compound E12, N-(2,6-Difluorophenyl)-4-[5-(1-fluoro-1-methyl-2-{[6-(trifluoromethyl)pyridin-2-yl]oxy}ethyl)-2-methylpyrimidin-4-yl]piperidine-1-carboxamide], the concentration for half-maximal inhibition (IC50) was 11 nM.
For `C/C(=N\Oc1cccc(C)c1C)c1cnc(C)nc1C1CCN(C(=O)Cc2c(F)cccc2F)CC1` [Compound B22, (E)-2-(2,6-difluorophenyl)-1-(4-(5-(1-((2,3-dimethylphenoxy)imino)ethyl)-2-methylpyrimidin-4-yl)piperidin-1-yl)ethanone] the value was 84 nM.
The same measure for `Cc1ncc(C(C)(C)OCc2cccc(Cl)c2)c(C2CCN(C(=O)Cc3c(F)cccc3F)CC2)n1` [Compound E6, 1-(4-(5-(2-((3-chlorobenzyl)oxy)propan-2-yl)-2-methylpyrimidin-4-yl)piperidin-1-yl)-2-(2,6-difluorophenyl)ethanone]: 45.7 nM; for `C/C(=N\Oc1cccc(C(F)(F)F)c1)c1cnc(C)nc1C1CCN(C(=O)Nc2c(F)cccc2C(F)(F)F)CC1` [Compound B45, N-[2-fluoro-6-(trifluoromethyl)phenyl]-4-{2-methyl-5-[(1E)-N-{[3-(trifluoromethyl)phenyl]oxy}ethanimidoyl]pyrimidin-4-yl}piperidine-1-carboxamide]: 8 nM.
The same measure for `Cc1nc(C)c(-c2nnc(-c3ccnc(C(F)(F)F)n3)o2)c(C2CCN(C(=O)C(F)(F)c3ccccc3F)CC2)n1` [Compound C44, 4-{1-[Difluoro(2-fluorophenyl)acetyl]piperidin-4-yl}-2,6-dimethyl-5-{5-[2-(trifluoromethyl)pyrimidin-4-yl]-1,3,4-oxadiazol-2-yl}pyrimidine]: 3.2 nM.
Take `C/C(=N\Oc1cccc(C)c1)c1cnc(C)nc1C1CCN(C(=O)Cc2c(F)cccc2F)CC1` [Compound B11, (E)-2-(2,6-difluorophenyl)-1-(4-(2-methyl-5-(1-((m-tolyloxy)imino)ethyl)pyrimidin-4-yl)piperidin-1-yl)ethanone]: the IC50 was 1.7 nM.
As for `Cc1ncc(C(=O)NOc2ccccc2)c(C2CCN(C(=O)Cc3c(F)cccc3F)CC2)n1` [Compound H7, 4-(1-(2-(2,6-difluorophenyl)acetyl)piperidin-4-yl)-2-methyl-N-phenoxypyrimidine-5-carboxamide], the IC50 was 1750 nM.
The same measure for `O=C(NCc1ccc(Cl)c(Cl)c1)c1cnc(-c2ccccc2)nc1C1CCN(C(=O)Cc2c(F)cccc2F)CC1` [Compound A37, N-(3,4-dichlorobenzyl)-4-(1-(2-(2,6-difluorophenyl)acetyl)piperidin-4-yl)-2-phenylpyrimidine-5-carboxamide]: 4200 nM; for `Cc1nc(C)c(-c2nc(-c3ccc(F)cc3)no2)c(C2CCN(C(=O)Cc3c(F)cccc3F)CC2)n1` [Compound C2, 2-(2,6-difluorophenyl)-1-(4-(5-(3-(4-fluorophenyl)-1,2,4-oxadiazol-5-yl)-2,6-dimethylpyrimidin-4-yl)piperidin-1-yl)ethanone]: 337 nM.
For `Cc1nc(C)c(-c2ncc(-c3cccc(Cl)c3)o2)c(C2CCN(C(=O)Cc3c(F)cccc3F)CC2)n1` [Compound C66, 5-[5-(3-Chlorophenyl)-1,3-oxazol-2-yl]-4-{1-[(2,6-difluorophenyl)acetyl]piperidin-4-yl}-2,6-dimethylpyrimidine] the value was 65.9 nM.
The same measure for `Cc1nc(C)c(C(=O)NCc2cccc(C(F)(F)F)n2)c(C2CCN(C(=O)Cc3c(F)cccc3F)CC2)n1` [Compound A82, 4-(1-(2-(2,6-difluorophenyl)acetyl)piperidin-4-yl)-2,6-dimethyl-N-((6-(trifluoromethyl)pyridin-2-yl)methyl)pyrimidine-5-carboxamide]: 6.2 nM; for `COc1ccc(CNc2ncc(C(C)(O)COc3ccnc(C(F)(F)F)n3)c(C3CCN(C(=O)Nc4c(F)cccc4F)CC3)n2)c(OC)c1` (stereo not drawn) [Compound D37, 4-[2-({[2,4-Bis(methyloxy)phenyl]methyl}amino)-5-(1-hydroxy-1-methyl-2-{[2-(trifluoromethyl)pyrimidin-4-yl]oxy}ethyl)pyrimidin-4-yl]-N-(2,6-difluorophenyl)piperidine-1-carboxamide]: 112 nM; for `C/C(=N/Oc1cccc(C(F)(F)F)c1)c1cnc(C)nc1C1CCN(C(=O)Cc2c(F)cccc2F)CC1` [Compound B4, (Z)-2-(2,6-Difluorophenyl)-1-(4-(2-methyl-5-(1-(3-(trifluoromethyl)phenoxyimino)ethyl)pyrimidin-4-yl)piperidin-1-yl)ethanone]: 137 nM.
In the case of `CC(C)Nc1ncc(C(=O)NCc2cccc(Cl)c2)c(C2CCN(C(=O)Cc3c(F)cccc3F)CC2)n1` [Compound A94, N-(3-chlorobenzyl)-4-(1-(2-(2,6-difluorophenyl)acetyl)piperidin-4-yl)-2-(isopropylamino)pyrimidine-5-carboxamide], the IC50 amounted to 25.4 nM.
The same measure for `COc1nc(C)c(C(O)COc2ccnc(C(F)(F)F)n2)c(C2CCN(C(=O)Nc3c(F)cccc3F)CC2)n1` (stereo not drawn) [Compound N8, N-(2,6-Difluorophenyl)-4-[5-(1-hydroxy-2-{[2-(trifluoromethyl)pyrimidin-4-yl]oxy}ethyl)-6-methyl-2-(methyloxy)pyrimidin-4-yl]piperidine-1-carboxamide]: 4.8 nM; for `Cc1cc(C)cc(CNC(=O)c2cnc(C)nc2C2CCN(C(=O)Cc3cccc(F)c3F)CC2)c1` [Compound A18, 4-(1-(2-(2,3-difluorophenyl)acetyl)piperidin-4-yl)-N-(3,5-dimethylbenzyl)-2-methylpyrimidine-5-carboxamide]: 124 nM.
Turning to `Cc1cc(C)cc(CNC(=O)c2cnc(C)nc2C2(F)CCN(C(=O)Cc3c(F)cccc3F)CC2)c1` [Compound A105, 4-(1-(2-(2,6-difluorophenyl)acetyl)-4-fluoropiperidin-4-yl)-N-(3,5-dimethylbenzyl)-2-methylpyrimidine-5-carboxamide], the IC50 was determined as 551 nM.
For the compound `Cc1ncc(-c2nnc(-c3ccnc(C(F)(F)F)n3)o2)c(C2CCN(C(=O)Cc3c(F)cccc3F)CC2)n1` [Compound C62, 4-{1-[(2,6-difluorophenyl)acetyl]piperidin-4-yl}-2-methyl-5-{5-[2-(trifluoromethyl)pyrimidin-4-yl]-1,3,4-oxadiazol-2-yl}pyrimidine], the IC50 worked out at 157 nM.
`C/C(=N\Oc1ccnc(C(F)(F)F)c1)c1cnc(N(C)C)nc1C1CCN(C(=O)Nc2c(F)cccc2F)CC1` [Compound B61, N-(2,6-Difluorophenyl)-4-{2-(dimethylamino)-5-[(1E)-N-{[2-(trifluoromethyl)pyridin-4-yl]oxy}ethanimidoyl]pyrimidin-4-yl}piperidine-1-carboxamide]: the IC50 is 367 nM.
On to `Cc1cc(C)cc(OCC(C)(O)c2cnc(C)nc2C2CCN(C(=O)Cc3c(F)cccc3F)CC2)c1` (stereo not drawn) [Compound D11, 2-(2,6-Difluorophenyl)-1-(4-(5-(1-(3,5-dimethylphenoxy)-2-hydroxypropan-2-yl)-2-methylpyrimidin-4-yl)piperidin-1-yl)ethanone], for which the IC50 came out at 14.5 nM.
The same measure for `Cc1ncc(C(=O)NC(C)c2cccc(Cl)c2)c(C2CCN(C(=O)Cc3c(F)cccc3F)CC2)n1` (stereo not drawn) [Compound A76, N-(1-(3-chlorophenyl)ethyl)-4-(1-(2-(2,6-difluorophenyl)acetyl)piperidin-4-yl)-2-methylpyrimidine-5-carboxamide]: 1120 nM; for `Cc1ncc(C(=O)NCc2cc(Cl)nc(Cl)c2)c(C2CCN(C(=O)Cc3c(F)cccc3F)CC2)n1` [Compound A49, N-((2,6-dichloropyridin-4-yl)methyl)-4-(1-(2-(2,6-difluorophenyl)acetyl)piperidin-4-yl)-2-methylpyrimidine-5-carboxamide]: 6.8 nM; for `CC(C)Oc1ncc(C(=O)NCc2cccc(Cl)c2)c(C2CCN(C(=O)Cc3c(F)cccc3F)CC2)n1` [Compound A95, N-(3-chlorobenzyl)-4-(1-(2-(2,6-difluorophenyl)acetyl)piperidin-4-yl)-2-isopropoxypyrimidine-5-carboxamide]: 175 nM.
For `Cc1nc(C)c(C(=O)NCc2ccnc(C(F)(F)F)c2)c(C2CCN(C(=O)Cc3c(F)cccc3F)CC2)n1` [Compound A61, 4-(1-(2-(2,6-difluorophenyl)acetyl)piperidin-4-yl)-2,6-dimethyl-N-((2-(trifluoromethyl)pyridin-4-yl)methyl)pyrimidine-5-carboxamide] the value was 38.2 nM; for `Cc1ncc(C(=O)NOc2cccc(Cl)c2)c(C2CCN(C(=O)Cc3c(F)cccc3F)CC2)n1` [Compound H3, N-(3-chlorophenoxy)-4-(1-(2-(2,6-difluorophenyl)acetyl)piperidin-4-yl)-2-methylpyrimidine-5-carboxamide], 84 nM; for `Cc1ncc(C(C)(C)OCc2cccc(Cl)n2)c(C2CCN(C(=O)Cc3c(F)cccc3F)CC2)n1` [Compound E7, 1-(4-(5-(2-((6-chloropyridin-2-yl)methoxy)propan-2-yl)-2-methylpyrimidin-4-yl)piperidin-1-yl)-2-(2,6-difluorophenyl)ethanone], 63 nM.
As for `CCNC(=O)NCC(O)(COc1cccc(C(F)(F)F)n1)c1cnc(C)nc1C1CCN(C(=O)Nc2c(F)cccc2F)CC1` (stereo not drawn) [Compound N36, N-(2,6-Difluorophenyl)-4-{5-[2-{[(ethylamino)carbonyl]amino}-1-hydroxy-1-({[6-(trifluoromethyl)pyridin-2-yl]oxy}methyl)ethyl]-2-methylpyrimidin-4-yl}piperidine-1-carboxamide], the IC50 amounted to 47.8 nM.
